Source: the supplement of paper PMC10307832

Key:
Experiment in all cases: relative viability (nuclei count vs DMSO), 5 days (fraction); higher = more cells survive
CAL-12T = system: CAL-12T
Outline: (§1)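 Relative viability is defined as nuclei in treated wells over nuclei in vehicle wells. Duplicate plates were run and medians reported. Lung cancer cell lines in 1536-well plates were dosed by pin tool one day after seeding, with one drug or with a fixed anchor-drug dose plus five library-drug doses (not always all listed) in √10 steps, and nuclei were counted after 5 days.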

NCI-H1666 = system: NCI-H1666
Outline: as §1

NCI-H1975 = system: NCI-H1975
Outline: as §1

NCI-H1755 = system: NCI-H1755
Outline: as §1

UMC-11 = system: UMC-11
Outline: as §1

ChaGo-K-1 = system: ChaGo-K-1
Outline: as §1

HCC-15 = system: HCC-15
Outline: as §1

COR-L 105 = system: COR-L 105
Outline: as §1

NCI-H2126 = system: NCI-H2126
Outline: as §1

NCI-H3122 = system: NCI-H3122
Outline: as §1

NCI-H322M = system: NCI-H322M
Outline: as §1

NCI-H441 = system: NCI-H441
Outline: as §1

HCC-78 = system: HCC-78
Outline: as §1

NCI-H2023 = system: NCI-H2023
Outline: as §1

EPLC-272H = system: EPLC-272H
Outline: as §1

HOP-62 = system: HOP-62
Outline: as §1

LXF-289 = system: LXF-289
Outline: as §1

NCI-H1915 = system: NCI-H1915
Outline: as §1

EMC-BAC-2 = system: EMC-BAC-2
Outline: as §1

NCI-H2085 = system: NCI-H2085
Outline: as §1

SMILES: CC(=O)O[C@@]12CO[C@@H]1C[C@H](O)[C@@]1(C)C(=O)[C@H](O)C3=C(C)[C@@H](OC(=O)[C@H](O)[C@@H](NC(=O)OC(C)(C)C)c4ccccc4)C[C@@](O)([C@@H](OC(=O)c4ccccc4)[C@H]21)C3(C)C [Docetaxel] + CC1(C)CCC(c2ccc(Cl)cc2)=C(CN2CCN(c3ccc(C(=O)NS(=O)(=O)c4ccc(N[C@H](CCN5CCOCC5)CSc5ccccc5)c(S(=O)(=O)C(F)(F)F)c4)cc3)CC2)C1 [Navitoclax] (partner 0.5 µM)
- relative viability (CAL-12T; first compound 0.0002 µM): 1.02
- relative viability (CAL-12T; first compound 0.000632 µM): 0.694
- relative viability (CAL-12T; first compound 0.002 µM): 0.178
- relative viability (CAL-12T; first compound 0.02 µM): 0.101
- relative viability (NCI-H1666; first compound 0.0002 µM): 0.646
- relative viability (NCI-H1666; first compound 0.000632 µM): 0.565
- relative viability (NCI-H1666; first compound 0.002 µM): 0.354
- relative viability (NCI-H1666; first compound 0.006325 µM): 0.302
- relative viability (NCI-H1666; first compound 0.02 µM): 0.186
- relative viability (NCI-H1975; first compound 0.0002 µM): 1.1
- relative viability (NCI-H1975; first compound 0.000632 µM): 1.11
- relative viability (NCI-H1975; first compound 0.002 µM): 0.276
- relative viability (NCI-H1975; first compound 0.006325 µM): 0.252
- relative viability (NCI-H1975; first compound 0.02 µM): 0.156
- relative viability (NCI-H1755; first compound 0.0002 µM): 0.982
- relative viability (NCI-H1755; first compound 0.000632 µM): 0.98
- relative viability (NCI-H1755; first compound 0.002 µM): 0.401
- relative viability (NCI-H1755; first compound 0.006325 µM): 0.232
- relative viability (NCI-H1755; first compound 0.02 µM): 0.136
- relative viability (UMC-11; first compound 0.0002 µM): 0.314
- relative viability (UMC-11; first compound 0.000632 µM): 0.271
- relative viability (UMC-11; first compound 0.002 µM): 0.155
- relative viability (UMC-11; first compound 0.006325 µM): 0.131
- relative viability (UMC-11; first compound 0.02 µM): 0.105
- relative viability (ChaGo-K-1; first compound 0.0002 µM): 1.02
- relative viability (ChaGo-K-1; first compound 0.000632 µM): 0.597
- relative viability (ChaGo-K-1; first compound 0.002 µM): 0.485
- relative viability (ChaGo-K-1; first compound 0.006325 µM): 0.429
- relative viability (ChaGo-K-1; first compound 0.02 µM): 0.232
- relative viability (HCC-15; first compound 0.0002 µM): 0.636
- relative viability (HCC-15; first compound 0.000632 µM): 0.372
- relative viability (HCC-15; first compound 0.002 µM): 0.221
- relative viability (HCC-15; first compound 0.006325 µM): 0.161
- relative viability (HCC-15; first compound 0.02 µM): 0.0988
- relative viability (COR-L 105; first compound 0.0002 µM): 0.94
- relative viability (COR-L 105; first compound 0.000632 µM): 0.715
- relative viability (COR-L 105; first compound 0.002 µM): 0.343
- relative viability (COR-L 105; first compound 0.006325 µM): 0.367
- relative viability (COR-L 105; first compound 0.02 µM): 0.26
- relative viability (NCI-H2126; first compound 0.0002 µM): 0.873
- relative viability (NCI-H2126; first compound 0.000632 µM): 0.954
- relative viability (NCI-H2126; first compound 0.002 µM): 0.735
- relative viability (NCI-H2126; first compound 0.006325 µM): 0.334
- relative viability (NCI-H2126; first compound 0.02 µM): 0.227
- relative viability (NCI-H3122; first compound 0.0002 µM): 0.996
- relative viability (NCI-H3122; first compound 0.000632 µM): 1
- relative viability (NCI-H3122; first compound 0.002 µM): 0.895
- relative viability (NCI-H3122; first compound 0.006325 µM): 0.376
- relative viability (NCI-H3122; first compound 0.02 µM): 0.168
- relative viability (NCI-H322M; first compound 0.0002 µM): 1.14
- relative viability (NCI-H322M; first compound 0.000632 µM): 1.13
- relative viability (NCI-H322M; first compound 0.002 µM): 0.962
- relative viability (NCI-H322M; first compound 0.006325 µM): 0.511
- relative viability (NCI-H322M; first compound 0.02 µM): 0.306
- relative viability (NCI-H441; first compound 0.0002 µM): 0.486
- relative viability (NCI-H441; first compound 0.000632 µM): 0.275
- relative viability (NCI-H441; first compound 0.002 µM): 0.204
- relative viability (NCI-H441; first compound 0.006325 µM): 0.23
- relative viability (NCI-H441; first compound 0.02 µM): 0.13
- relative viability (HCC-78; first compound 0.0002 µM): 0.75
- relative viability (HCC-78; first compound 0.000632 µM): 0.455
- relative viability (HCC-78; first compound 0.002 µM): 0.244
- relative viability (HCC-78; first compound 0.006325 µM): 0.242
- relative viability (HCC-78; first compound 0.02 µM): 0.158
- relative viability (NCI-H2023; first compound 0.0002 µM): 1.01
- relative viability (NCI-H2023; first compound 0.000632 µM): 0.995
- relative viability (NCI-H2023; first compound 0.002 µM): 0.176
- relative viability (NCI-H2023; first compound 0.006325 µM): 0.168
- relative viability (NCI-H2023; first compound 0.02 µM): 0.0908
- relative viability (EPLC-272H; first compound 0.0002 µM): 1.12
- relative viability (EPLC-272H; first compound 0.000632 µM): 0.889
- relative viability (EPLC-272H; first compound 0.002 µM): 0.374
- relative viability (EPLC-272H; first compound 0.006325 µM): 0.126
- relative viability (EPLC-272H; first compound 0.02 µM): 0.0732
- relative viability (HOP-62; first compound 0.0002 µM): 0.878
- relative viability (HOP-62; first compound 0.000632 µM): 0.552
- relative viability (HOP-62; first compound 0.002 µM): 0.312
- relative viability (HOP-62; first compound 0.02 µM): 0.0795
- relative viability (LXF-289; first compound 0.0002 µM): 0.96
- relative viability (LXF-289; first compound 0.000632 µM): 0.796
- relative viability (LXF-289; first compound 0.002 µM): 0.585
- relative viability (LXF-289; first compound 0.006325 µM): 0.142
- relative viability (LXF-289; first compound 0.02 µM): 0.0718
- relative viability (NCI-H1915; first compound 0.0002 µM): 0.789
- relative viability (NCI-H1915; first compound 0.000632 µM): 0.774
- relative viability (NCI-H1915; first compound 0.002 µM): 0.524
- relative viability (NCI-H1915; first compound 0.006325 µM): 0.102
- relative viability (NCI-H1915; first compound 0.02 µM): 0.0504
- relative viability (EMC-BAC-2; first compound 0.0002 µM): 1.14
- relative viability (EMC-BAC-2; first compound 0.000632 µM): 1.11
- relative viability (EMC-BAC-2; first compound 0.002 µM): 0.735
- relative viability (EMC-BAC-2; first compound 0.006325 µM): 0.272
- relative viability (EMC-BAC-2; first compound 0.02 µM): 0.148
- relative viability (NCI-H2085; first compound 0.0002 µM): 1.05
- relative viability (NCI-H2085; first compound 0.000632 µM): 1.03
- relative viability (NCI-H2085; first compound 0.002 µM): 0.68
- relative viability (NCI-H2085; first compound 0.006325 µM): 0.476
- relative viability (NCI-H2085; first compound 0.02 µM): 0.232
